BigSolDB 2.1

## O=C(O)Cc1ccccc1[N+](=O)[O-]
In 1,4-dioxane, 288.15 K
  solubility (mole fraction): 0.0461
In 1,4-dioxane, 293.15 K
  solubility (mole fraction): 0.0535
In 1,4-dioxane, 298.15 K
  solubility (mole fraction): 0.0618
In 1,4-dioxane, 303.15 K
  solubility (mole fraction): 0.0732
In 1,4-dioxane, 308.15 K
  solubility (mole fraction): 0.0853
In 1,4-dioxane, 313.15 K
  solubility (mole fraction): 0.1
In 1,4-dioxane, 318.15 K
  solubility (mole fraction): 0.118
In 1,4-dioxane, 323.15 K
  solubility (mole fraction): 0.139
In 1,4-dioxane, 328.15 K
  solubility (mole fraction): 0.162
In DMF, 283.15 K
  solubility (mole fraction): 0.18
In DMF, 288.15 K
  solubility (mole fraction): 0.202
In DMF, 293.15 K
  solubility (mole fraction): 0.222
In DMF, 298.15 K
  solubility (mole fraction): 0.249
In DMF, 303.15 K
  solubility (mole fraction): 0.277
In DMF, 308.15 K
  solubility (mole fraction): 0.308
In DMF, 313.15 K
  solubility (mole fraction): 0.338
In DMF, 318.15 K
  solubility (mole fraction): 0.371
In DMF, 323.15 K
  solubility (mole fraction): 0.406
In DMF, 328.15 K
  solubility (mole fraction): 0.445
In acetonitrile, 283.15 K
  solubility (mole fraction): 0.0143
In acetonitrile, 288.15 K
  solubility (mole fraction): 0.016
In acetonitrile, 293.15 K
  solubility (mole fraction): 0.0184
In acetonitrile, 298.15 K
  solubility (mole fraction): 0.0219
In acetonitrile, 303.15 K
  solubility (mole fraction): 0.0255
In acetonitrile, 308.15 K
  solubility (mole fraction): 0.0304
In acetonitrile, 313.15 K
  solubility (mole fraction): 0.0365
In acetonitrile, 318.15 K
  solubility (mole fraction): 0.0437
In acetonitrile, 323.15 K
  solubility (mole fraction): 0.0515
In acetonitrile, 328.15 K
  solubility (mole fraction): 0.0604
In cyclohexane, 283.15 K
  solubility (mole fraction): 8.88e-06
In cyclohexane, 288.15 K
  solubility (mole fraction): 1.22e-05
In cyclohexane, 293.15 K
  solubility (mole fraction): 1.65e-05
In cyclohexane, 298.15 K
  solubility (mole fraction): 2.23e-05
In cyclohexane, 303.15 K
  solubility (mole fraction): 2.94e-05
In cyclohexane, 308.15 K
  solubility (mole fraction): 3.79e-05
In cyclohexane, 313.15 K
  solubility (mole fraction): 4.9e-05
In cyclohexane, 318.15 K
  solubility (mole fraction): 6.35e-05
In cyclohexane, 323.15 K
  solubility (mole fraction): 8.34e-05
In cyclohexane, 328.15 K
  solubility (mole fraction): 0.000108
In ethanol, 283.15 K
  solubility (mole fraction): 0.0273
In ethanol, 288.15 K
  solubility (mole fraction): 0.0317
In ethanol, 293.15 K
  solubility (mole fraction): 0.0367
In ethanol, 298.15 K
  solubility (mole fraction): 0.0432
In ethanol, 303.15 K
  solubility (mole fraction): 0.0516
In ethanol, 308.15 K
  solubility (mole fraction): 0.0627
In ethanol, 313.15 K
  solubility (mole fraction): 0.0743
In ethanol, 318.15 K
  solubility (mole fraction): 0.0878
In ethanol, 323.15 K
  solubility (mole fraction): 0.104
In ethanol, 328.15 K
  solubility (mole fraction): 0.123
In ethyl acetate, 283.15 K
  solubility (mole fraction): 0.0285
In ethyl acetate, 288.15 K
  solubility (mole fraction): 0.0323
In ethyl acetate, 293.15 K
  solubility (mole fraction): 0.0383
In ethyl acetate, 298.15 K
  solubility (mole fraction): 0.0453
In ethyl acetate, 303.15 K
  solubility (mole fraction): 0.055
In ethyl acetate, 308.15 K
  solubility (mole fraction): 0.0651
In ethyl acetate, 313.15 K
  solubility (mole fraction): 0.0764
In ethyl acetate, 318.15 K
  solubility (mole fraction): 0.0877
In ethyl acetate, 323.15 K
  solubility (mole fraction): 0.0979
In ethyl acetate, 328.15 K
  solubility (mole fraction): 0.11
In ethylene glycol, 283.15 K
  solubility (mole fraction): 0.0148
In ethylene glycol, 288.15 K
  solubility (mole fraction): 0.0175
In ethylene glycol, 293.15 K
  solubility (mole fraction): 0.0208
In ethylene glycol, 298.15 K
  solubility (mole fraction): 0.0245
In ethylene glycol, 303.15 K
  solubility (mole fraction): 0.0287
In ethylene glycol, 308.15 K
  solubility (mole fraction): 0.0337
In ethylene glycol, 313.15 K
  solubility (mole fraction): 0.0399
In ethylene glycol, 318.15 K
  solubility (mole fraction): 0.0473
In ethylene glycol, 323.15 K
  solubility (mole fraction): 0.0561
In ethylene glycol, 328.15 K
  solubility (mole fraction): 0.0664
In isobutanol, 283.15 K
  solubility (mole fraction): 0.00864
In isobutanol, 288.15 K
  solubility (mole fraction): 0.0106
In isobutanol, 293.15 K
  solubility (mole fraction): 0.0134
In isobutanol, 298.15 K
  solubility (mole fraction): 0.0169
In isobutanol, 303.15 K
  solubility (mole fraction): 0.0218
In isobutanol, 308.15 K
  solubility (mole fraction): 0.0271
In isobutanol, 313.15 K
  solubility (mole fraction): 0.033
In isobutanol, 318.15 K
  solubility (mole fraction): 0.0394
In isobutanol, 323.15 K
  solubility (mole fraction): 0.0465
In isobutanol, 328.15 K
  solubility (mole fraction): 0.0573
In isopropanol, 283.15 K
  solubility (mole fraction): 0.0154
In isopropanol, 288.15 K
  solubility (mole fraction): 0.0182
In isopropanol, 293.15 K
  solubility (mole fraction): 0.0216
In isopropanol, 298.15 K
  solubility (mole fraction): 0.0253
In isopropanol, 303.15 K
  solubility (mole fraction): 0.0302
In isopropanol, 308.15 K
  solubility (mole fraction): 0.035
In isopropanol, 313.15 K
  solubility (mole fraction): 0.0414
In isopropanol, 318.15 K
  solubility (mole fraction): 0.0482
In isopropanol, 323.15 K
  solubility (mole fraction): 0.0564
In isopropanol, 328.15 K
  solubility (mole fraction): 0.0665
In methanol, 283.15 K
  solubility (mole fraction): 0.0409
In methanol, 288.15 K
  solubility (mole fraction): 0.0455
In methanol, 293.15 K
  solubility (mole fraction): 0.0521
In methanol, 298.15 K
  solubility (mole fraction): 0.0584
In methanol, 303.15 K
  solubility (mole fraction): 0.0673
In methanol, 308.15 K
  solubility (mole fraction): 0.0769
In methanol, 313.15 K
  solubility (mole fraction): 0.0887
In methanol, 318.15 K
  solubility (mole fraction): 0.102
In methanol, 323.15 K
  solubility (mole fraction): 0.117
In methanol, 328.15 K
  solubility (mole fraction): 0.134
In n-butanol, 283.15 K
  solubility (mole fraction): 0.0168
In n-butanol, 288.15 K
  solubility (mole fraction): 0.0198
In n-butanol, 293.15 K
  solubility (mole fraction): 0.0233
In n-butanol, 298.15 K
  solubility (mole fraction): 0.0271
In n-butanol, 303.15 K
  solubility (mole fraction): 0.0323
In n-butanol, 308.15 K
  solubility (mole fraction): 0.0382
In n-butanol, 313.15 K
  solubility (mole fraction): 0.0451
In n-butanol, 318.15 K
  solubility (mole fraction): 0.0533
In n-butanol, 323.15 K
  solubility (mole fraction): 0.0618
In n-butanol, 328.15 K
  solubility (mole fraction): 0.0742
In n-propanol, 283.15 K
  solubility (mole fraction): 0.0181
In n-propanol, 288.15 K
  solubility (mole fraction): 0.0219
In n-propanol, 293.15 K
  solubility (mole fraction): 0.0263
In n-propanol, 298.15 K
  solubility (mole fraction): 0.0312
In n-propanol, 303.15 K
  solubility (mole fraction): 0.037
In n-propanol, 308.15 K
  solubility (mole fraction): 0.0441
In n-propanol, 313.15 K
  solubility (mole fraction): 0.0533
In n-propanol, 318.15 K
  solubility (mole fraction): 0.0637
In n-propanol, 323.15 K
  solubility (mole fraction): 0.0767
In n-propanol, 328.15 K
  solubility (mole fraction): 0.0934
In water, 283.15 K
  solubility (mole fraction): 5.33e-05
In water, 288.15 K
  solubility (mole fraction): 7.8e-05
In water, 293.15 K
  solubility (mole fraction): 0.000105
In water, 298.15 K
  solubility (mole fraction): 0.000141
In water, 303.15 K
  solubility (mole fraction): 0.000185
In water, 308.15 K
  solubility (mole fraction): 0.000248
In water, 313.15 K
  solubility (mole fraction): 0.000321
In water, 318.15 K
  solubility (mole fraction): 0.000426
In water, 323.15 K
  solubility (mole fraction): 0.000554
In water, 328.15 K
  solubility (mole fraction): 0.000727
